Experimental data as given in US20240269139A1, “COMPOUNDS FOR TARGETED PROTEIN DEGRADATION OF KINASES” (DANA-FARBER CANCER INSTITUTE, INC., priority 2020, published 2024).
Several values for one entry are separate records, joined by “and”; a condition that tells them apart may be missing. Equal entries are not always repeated. Where two headings read alike, the source gives them in different places.

Tests used:
Assay type in all cases: cell-based
[1] = system: protein kinases (human kinome); settings: for logFC BUB1B: BUB1B (O60566-3); for logFC CSNK1D: CSNK1D P48730-2; for logFC of FER: FER P16591-3; for logFC LCK: accession P06239-3; for logFC RPS6KA1: RPS6KA1 (Q15418-2)
[2] = target: protein kinases (human kinome) (Homo sapiens, UniProt Q9H0K1); settings: for logFC of SIK2: Accession Q9H0K1; for logFC SIK2 (Q9H0K1): direction of change down
Sequence of protein kinases (human kinome) (Homo sapiens, UniProt Q9H0K1) (Q9H0K1 whole entry): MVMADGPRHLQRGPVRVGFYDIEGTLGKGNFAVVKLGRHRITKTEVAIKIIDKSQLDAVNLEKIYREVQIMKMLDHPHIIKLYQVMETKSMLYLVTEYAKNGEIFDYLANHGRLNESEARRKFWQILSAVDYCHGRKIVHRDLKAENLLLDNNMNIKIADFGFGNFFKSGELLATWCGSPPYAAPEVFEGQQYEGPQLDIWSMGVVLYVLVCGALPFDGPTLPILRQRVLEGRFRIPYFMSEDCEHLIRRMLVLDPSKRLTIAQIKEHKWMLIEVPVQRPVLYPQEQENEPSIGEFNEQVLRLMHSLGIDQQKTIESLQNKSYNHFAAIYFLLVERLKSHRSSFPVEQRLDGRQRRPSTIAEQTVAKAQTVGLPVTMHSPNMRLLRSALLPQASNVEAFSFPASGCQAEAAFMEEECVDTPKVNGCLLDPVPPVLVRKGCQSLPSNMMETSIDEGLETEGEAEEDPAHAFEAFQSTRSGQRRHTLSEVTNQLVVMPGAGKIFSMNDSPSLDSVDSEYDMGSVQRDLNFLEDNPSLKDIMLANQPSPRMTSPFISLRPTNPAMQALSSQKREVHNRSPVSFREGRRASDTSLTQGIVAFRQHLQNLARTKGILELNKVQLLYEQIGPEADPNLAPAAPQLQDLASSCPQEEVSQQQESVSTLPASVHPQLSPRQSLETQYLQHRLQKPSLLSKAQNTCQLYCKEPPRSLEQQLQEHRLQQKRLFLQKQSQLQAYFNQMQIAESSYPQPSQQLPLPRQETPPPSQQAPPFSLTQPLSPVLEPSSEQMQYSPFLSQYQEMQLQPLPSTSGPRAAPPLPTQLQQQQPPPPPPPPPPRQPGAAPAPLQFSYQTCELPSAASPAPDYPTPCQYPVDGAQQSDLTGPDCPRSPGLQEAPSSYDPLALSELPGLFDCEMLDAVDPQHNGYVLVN

[3] = target: T1, protein kinases (human kinome) (Homo sapiens, UniProt O75385); settings: for logFC: ULK1 (O75385) protein abundance, degrader vs DMSO, down; for logFC ULK1: ULK1 O75385
T1 sequence (O75385 1-1050): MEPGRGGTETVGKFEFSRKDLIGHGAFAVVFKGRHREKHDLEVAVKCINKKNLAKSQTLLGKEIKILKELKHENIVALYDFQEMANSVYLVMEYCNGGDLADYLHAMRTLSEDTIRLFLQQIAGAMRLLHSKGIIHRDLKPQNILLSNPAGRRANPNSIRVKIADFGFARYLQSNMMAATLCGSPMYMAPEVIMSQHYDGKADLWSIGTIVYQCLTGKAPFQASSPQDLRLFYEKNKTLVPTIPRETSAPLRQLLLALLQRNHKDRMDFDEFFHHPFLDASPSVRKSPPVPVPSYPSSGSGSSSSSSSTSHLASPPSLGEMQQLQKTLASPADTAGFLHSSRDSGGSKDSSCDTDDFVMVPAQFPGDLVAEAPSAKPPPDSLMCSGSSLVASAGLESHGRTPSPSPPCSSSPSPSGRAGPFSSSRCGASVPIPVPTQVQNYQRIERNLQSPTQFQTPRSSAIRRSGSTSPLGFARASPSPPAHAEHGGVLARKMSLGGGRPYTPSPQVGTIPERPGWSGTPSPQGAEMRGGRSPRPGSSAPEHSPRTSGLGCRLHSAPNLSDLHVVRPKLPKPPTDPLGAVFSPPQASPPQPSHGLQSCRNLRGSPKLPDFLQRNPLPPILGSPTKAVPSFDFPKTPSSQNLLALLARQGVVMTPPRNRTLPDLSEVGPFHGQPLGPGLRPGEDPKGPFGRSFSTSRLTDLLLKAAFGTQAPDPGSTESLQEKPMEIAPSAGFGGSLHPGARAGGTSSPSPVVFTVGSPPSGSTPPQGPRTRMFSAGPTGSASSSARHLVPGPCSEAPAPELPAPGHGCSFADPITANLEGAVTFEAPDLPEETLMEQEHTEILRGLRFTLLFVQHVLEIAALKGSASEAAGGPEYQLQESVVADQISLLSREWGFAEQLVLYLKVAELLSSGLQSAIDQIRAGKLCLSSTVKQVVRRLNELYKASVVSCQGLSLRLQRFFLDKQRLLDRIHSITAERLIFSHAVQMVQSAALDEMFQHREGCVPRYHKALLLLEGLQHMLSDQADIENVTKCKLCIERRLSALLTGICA

[4] = Experiment wp107, direction down
[5] = experiment wp016, 1 uM, direction of change down
[6] = experiment wp016, direction of change down
[7] = experiment wp103, direction of change down
[8] = experiment wp107, direction of change down
[9] = experiment wp133, 2 hr, direction of change down
[10] = experiment wp133, 4 hr, direction of change down

## CC(C)S(=O)(=O)c1ccccc1Nc1nc(Nc2ccc(N3CCN(CCOCCNC(=O)CNc4cccc5c4C(=O)N(C4CCC(=O)NC4=O)C5=O)CC3)cc2)ncc1Cl (stereo not drawn) [SK.3.91]
[1]; experiment wp107
  logFC BUB1B: −0.5037
  logFC ABL1 (P00519-2): −0.4711
  logFC CDK16 (Q00536-2): −0.4701
  logFC PRKAA1 (Q13131-2): −0.6352
  logFC ULK3 (Q6PHR2-4): −1.084
[1]; experiment wp133, 1 hr
  logFC BUB1B: −0.4083
[1]; experiment wp133, 2 hr
  logFC BUB1B: −0.4195
  logFC CDK9 (P50750-2): −0.3971
  logFC PRKAA1 (Q13131-2): −0.3804
[1]; experiment wp133, 4 hr
  logFC BUB1B: −0.5871
  logFC RPS6KA1: −0.3598
  logFC ABL1 (P00519-2): −0.3801
  logFC CDK9 (P50750-2): −1.037
  logFC PRKAA1 (Q13131-2): −0.6752
  logFC RPS6KA1 (Q15418-2): −0.3598
  logFC of MARK2 (Q7KZI7-14): −0.4086
[1]; CDK9 (P50750-2) protein abundance, degrader vs DMSO, 1 uM, down
  logFC: −1.356
[1]; CDK9 (P50750-2) protein abundance, degrader vs DMSO, 2 hr, down
  logFC: −0.3971
[1]; CDK9 (P50750-2) protein abundance, degrader vs DMSO, 4 hr, down
  logFC: −1.037
[1]; CDK18 (Q07002-3), experiment wp105
  logFC: −1.233
[1]; CDK18 (Q07002-3), experiment wp114
  logFC: −0.8295
[1]; experiment wp114
  logFC CSNK1D: −0.3991
  logFC of FER: −2.308
[1]; experiment wp160, 4 hr
  logFC CSNK1D: −0.3373
  logFC of CDK12 (Q9NYV4-2): −0.8448
[1]; Experiment wp016, 1 uM, direction down
  logFC PRKAA1 (Q13131-2): −0.7977
[1]; Experiment wp016, direction down
  logFC PRKAA1 (Q13131-2): −0.4914
[1]; Experiment wp103
  logFC CDK9 (P50750-2): −0.7857
[1]; Experiment wp103, direction down
  logFC PRKAA1 (Q13131-2): −0.5012
[1]; Experiment wp105, direction down
  logFC PRKAA1 (Q13131-2): −0.4413
[1]; Experiment wp105, direction of change down
  logFC MAP3K12 (Q12852-2): −0.6931
[1]; Experiment wp107
  logFC CDK9 (P50750-2): −1.2
  logFC of CDK12 (Q9NYV4-2): −1.042
[1]; [4]
  logFC PRKAA1 (Q13131-2): −0.6352
  logFC TNK2 (Q07912-3): −1.18
[1]; Experiment wp114
  logFC of CDK18 (Q07002-3): −0.8295
[1]; Experiment wp114, direction of change down
  logFC TNK1 (Q13470-2): −0.7394
[1]; Experiment wp133, 2 hr, direction down
  logFC PRKAA1 (Q13131-2): −0.3804
[1]; Experiment wp133, 4 hr, direction down
  logFC PRKAA1 (Q13131-2): −0.6752
[1]; Experiment wp160, 2 hr
  logFC of CDK12 (Q9NYV4-2): −0.4558
[1]; Experiment wp172
  logFC ABL2 (P42684-5): −0.7139
  logFC of ABL2 (P42684-5): −0.7139
[1]; FER (P16591-3), experiment wp114, direction down
  logFC: −2.308
[1]; FER (P16591-3), experiment wp172, direction down
  logFC: −2.816
[1]; experiment wp172
  logFC of FER: −2.816
[1]; [5]
  logFC LCK: −1.579
  logFC LCK (P06239-3): −1.579
[1]; [6]
  logFC LCK: −0.9189
  logFC LCK (P06239-3): −0.9189
[1]; [7]
  logFC LCK: −1.148
  logFC LCK (P06239-3): −1.148
[1]; [8]
  logFC LCK: −1.575
  logFC LCK (P06239-3): −1.575
  logFC TGFBR1 (P36897-2): −0.5264
  logFC ULK3 (Q6PHR2-4): −1.084
[1]; [9]
  logFC LCK: −0.5352
  logFC LCK (P06239-3): −0.5352
[1]; [10]
  logFC LCK: −1.277
  logFC LCK (P06239-3): −1.277
[1]; LIMK2 (P53671-3), experiment wp105, direction down
  logFC: −0.8401
[1]; LIMK2 P53671-3, experiment wp105
  logFC of LIMK2: −0.8401
[1]; MARK2 Q7KZI7-14, experiment wp105
  logFC: −0.4159
[1]; MARK2 Q7KZI7-14, experiment wp133, 4 hr
  logFC: −0.4086
[1]; PIP5K1A (Q99755-3), experiment wp107
  logFC: −0.45
[1]; PIP5K1A (Q99755-3), experiment wp133, 4 hr
  logFC: −0.3712
[1]; PTK2B (Q14289-2), experiment wp107, direction down
  logFC: −3.126
[1]; PTK2B, accession Q14289-2, experiment wp107, direction of change down
  logFC PTK2B: −3.126
[1]; experiment wp016, 1 uM
  logFC RPS6KA1: −0.4146
  logFC ABL1 (P00519-2): −0.3875
  logFC CDK9 (P50750-2): −1.356
  logFC PRKAA1 (Q13131-2): −0.7977
  logFC RPS6KA1 (Q15418-2): −0.4146
[1]; SRC (P12931-2) protein abundance, degrader vs DMSO, 1 uM, down
  logFC: −0.8428
[1]; SRC (P12931-2) protein abundance, degrader vs DMSO, 4 hr, down
  logFC: −0.6408
[1]; STK40 (Q8N2I9-4), experiment wp105, direction down
  logFC: −0.606
[1]; STK40 Q8N2I9-4, experiment wp105
  logFC: −0.606
[1]; TNK2 (Q07912-3), experiment wp107, direction down
  logFC: −1.18
[1]; experiment wp016
  logFC CDK9 (P50750-2): −0.6515
  logFC PRKAA1 (Q13131-2): −0.4914
[1]; experiment wp103
  logFC PRKAA1 (Q13131-2): −0.5012
[1]; experiment wp105
  logFC ABL1 (P00519-2): −0.333
  logFC CDK9 (P50750-2): −0.6775
  logFC CDK16 (Q00536-2): −0.6346
  logFC PRKAA1 (Q13131-2): −0.4413
  logFC of CDK18 (Q07002-3): −1.233
  logFC of MARK2 (Q7KZI7-14): −0.4159
[1]; protein MAP3K12 (Q12852-2), experiment wp105, down
  logFC MAP3K12: −0.6931
[1]; protein TGFBR1 (P36897-2), experiment wp107, down
  logFC TGFBR1: −0.5264
[1]; protein TNK1 (Q13470-2), experiment wp114, down
  logFC TNK1: −0.7394
[2]; experiment wp105
  logFC of SIK2: −0.5386
[2]; experiment wp107
  logFC of SIK2: −1.568
  logFC SIK2 (Q9H0K1): −1.568
[2]; experiment wp114
  logFC of SIK2: −0.5757
[2]; experiment wp133, 2 hr
  logFC of SIK2: −0.4938
  logFC SIK2 (Q9H0K1): −0.4938
[2]; experiment wp133, 4 hr
  logFC of SIK2: −1.035
  logFC SIK2 (Q9H0K1): −1.035
[2]; experiment wp160, 2 hr
  logFC of SIK2: −0.5413
  logFC SIK2 (Q9H0K1): −0.5413
[2]; experiment wp160, 4 hr
  logFC of SIK2: −0.8364
  logFC SIK2 (Q9H0K1): −0.8364
[2]; Experiment wp105
  logFC SIK2 (Q9H0K1): −0.5386
[2]; Experiment wp114
  logFC SIK2 (Q9H0K1): −0.5757
[3]; 1 hr
  logFC: −1.472 and −1.466
[3]; 2 hr
  logFC: −2.779 and −2.583
[3]; experiment wp103
  logFC ULK1: −1.332
[3]; experiment wp105
  logFC ULK1: −1.712
[3]; experiment wp107
  logFC ULK1: −1.162
[3]; experiment wp133, 1 hr
  logFC ULK1: −1.472
[3]; experiment wp133, 2 hr
  logFC ULK1: −2.779
[3]; experiment wp133, 4 hr
  logFC ULK1: −3.572
[3]; experiment wp160, 1 hr
  logFC ULK1: −1.466
[3]; experiment wp160, 2 hr
  logFC ULK1: −2.583
[3]; experiment wp160, 4 hr
  logFC ULK1: −3.085
